Laboratory results: the supplement of paper PMC4314810
± gives the standard deviation of the averaged measurements.

Tested on: MCF7
Test: HRG-induced Akt activation (dPAkt = log2 pAkt/Akt HRG-stimulated minus log2 pAkt/Akt basal) (log2 ratio difference); higher = stronger HRG-induced Akt(T308) phosphorylation
Details: miRNA mimic concentration 10 nM; time after transfection 72 h; heregulin 10 ng/ml; stimulation time 1 h
Procedure, shortened: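 MCF7 cells were plated […] in 96-well plates and transfected in two biological replicates with a library of 879 miRNA mimics (10 nM final) using Lipofectamine RNAiMax; 72 h later they were stimulated for 1 h with 10 ng/ml heregulin-beta1 or left unstimulated. After fixation in 4% PFA, phospho-Akt(T308) and total Akt were measured by In-Cell Western on an Odyssey, with signals corrected for column-wise fixation decay. Heregulin-induced Akt activation is the stimulated minus unstimulated value of the log ratio of phospho-Akt to total Akt, averaged over replicates. That log ratio is log2(pAkt/Akt).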

Sequence | HRG-induced Akt activation (log2)
UUCAAGUAAUUCAGGUG | 1.22 ± 0.15
GGAUAUCAUCAUAUACUGUAAG | 1.6 ± 0.044
UGGAGGAGAAGGAAGGUGAUG | 1.81 ± 0.038
CUCUCACCACUGCCCUCCCACAG | 1.9 ± 0.13
AGGCACGGUGUCAGCAGGC | 1.2 ± 0.26
UCUGCCCCCUCCGCUGCUGCCA | 1.55 ± 0.069
UGAGAUGAAGCACUGUAGCUC | 1.18 ± 0.22
ACUCAAAACCCUUCAGUGACUU | 1.79 ± 0.18
UUUUUCAUUAUUGCUCCUGACC | 1.62 ± 0.14
UAUAGGGAUUGGAGCCGUGGCG | 1.04 ± 0.064
GUAGAUUCUCCUUCUAUGAGUA | 1.35 ± 0.17
CAGCCACAACUACCCUGCCACU | 1.94 ± 0.99
AACCCGUAGAUCCGAACUUGUG | 1.11 ± 0.13
UUCACAUUGUGCUACUGUCUGC | 1.59 ± 0.03
GGCUACAACACAGGACCCGGGC | 1.88 ± 0.32
GGGGGUCCCCGGUGCUCGGAUC | 1.7 ± 0.064
UAUUGCACAUUACUAAGUUGCA | 1.07 ± 0.077
UCCCUGUUCGGGCGCCA | 1.65 ± 0.52
AGAGGUUGCCCUUGGUGAAUUC | 1.6 ± 0.19
GUGUGUGGAAAUGCUUCUGC | 2.16 ± 0.41
UAGCAGCACGUAAAUAUUGGCG | 2.03 ± 0.15
UGGUUCUAGACUUGCCAACUA | 1.94 ± 0.026
UCCAGUGCCCUCCUCUCC | 1.131 ± 0.0093
UCAGCAAACAUUUAUUGUGUGC | 1.819 ± 0.011

Sequence | HRG-induced Akt activation (log2)
CCAAUAUUGGCUGUGCUGCUCC | 1.32 ± 0.36
UCAAAACUGAGGGGCAUUUUCU | 1.34 ± 0.13
GACUGACACCUCUUUGGGUGAA | 1.49 ± 0.18
GAAGUGUGCCGUGGUGUGUCU | 2.03 ± 0.31
GUGAGGACUCGGGAGGUGG | 1.19 ± 0.87
UGGAUUUUUGGAUCAGGGA | 2.21 ± 0.15
AUAUAAUACAACCUGCUAAGUG | 0.999 ± 0.15
GUGAGGGCAUGCAGGCCUGGAUGGGG | 1.43 ± 0.21
CUCAGUAGCCAGUGUAGAUCCU | 1.53 ± 0.16
ACGGGUUAGGCUCUUGGGAGCU | 1.38 ± 0.043
ACUGGCUAGGGAAAAUGAUUGGAU | 1.24 ± 0.61
UGUCUCUGCUGGGGUUUCU | 1.89 ± 0.58
AGGCAAGAUGCUGGCAUAGCU | 1.18 ± 0.13
UAAGUGCUUCCAUGUUUUAGUAG | 1.08 ± 0.1
CCUGUUGAAGUGUAAUCCCCA | 1.21 ± 0.058
UGAGUUGGCCAUCUGAGUGAG | 1.61 ± 0.27
UGAGGUAGUAGUUUGUGCUGUU | 1.12 ± 0.026
CCGUCGCCGCCACCCGAGCCG | 1.23 ± 0.13
CGGCGGGGACGGCGAUUGGUC | 2.14 ± 0.33
UUCUCCAAAAGGGAGCACUUUC | 2.3 ± 0.097
AAGUUCUGUUAUACACUCAGGC | 1.154 ± 0.01
AAUCGUACAGGGUCAUCCACUU | 1.46 ± 0.051
UUCACAGGGAGGUGUCAU | 1.82 ± 0.08
AUGUAGGGCUAAAAGCCAUGGG | 1.01 ± 0.24

Sequence | HRG-induced Akt activation (log2)
CAAAGCGCUCCCCUUUAGAGGU | 1.02 ± 0.045
AGGCAGCGGGGUGUAGUGGAUA | 1.58 ± 0.27
CUUUCAGUCAGAUGUUUGCUGC | 1.67 ± 0.24
ACUCUUUCCCUGUUGCACUAC | 1.677 ± 0.0095
AUCGGGAAUGUCGUGUCCGCCC | 1.6 ± 0.039
ACCUUCUUGUAUAAGCACUGUGCUAAA | 1.54 ± 0.13
ACUGCCCUAAGUGCUCCUUCUGG | 1.72 ± 0.1
UAUGUGCCUUUGGACUACAUCG | 1.56 ± 0.13
AAGUGAUCUAAAGGCCUACAU | 1.67 ± 0.14
UGUAGUGUUUCCUACUUUAUGGA | 1.77 ± 0.26
GAAAGCGCUUCCCUUUGCUGGA | 1.63 ± 0.082
CUCCAGAGGGAUGCACUUUCU | 1.83 ± 0.3
UCCUUCAUUCCACCGGAGUCUG | 1.66 ± 0.26
UGAGAACUGAAUUCCAUGGGUU | 2.55 ± 0.058
UUCACAAGGAGGUGUCAUUUAU | 1.442 ± 0.013
UGAGGUAGUAGGUUGUAUAGUU | 1.26 ± 0.07
AGACCAUGGGUUCUCAUUGU | 1.18 ± 0.43
CACUGUGUCCUUUCUGCGUAG | 1.86 ± 0.19
UGGGUGGUCUGGAGAUUUGUGC | 1.58 ± 0.13
UUUAGGAUAAGCUUGACUUUUG | 1.37 ± 0.39
CACUGUAGGUGAUGGUGAGAGUGGGCA | 1.51 ± 0.23
AACGCACUUCCCUUUAGAGUGU | 1.23 ± 0.16
